In one data set the test system is HK-2 cells. As to the kind of experiment: Toxicity test on HK-2 cells (Alma Blue). Format: cell-based. The procedure: (§1) On the day of the experiment, when the HK-2 cells in the culture flask reached 80%-90% confluent, the culture medium was discarded, the cells were washed twice with Dulbecco's phosphate buffered saline (DPBS) and digested for 1 to 2 minutes with 3 mL trypsin (T150 cell culture flask), and immediately 9 ml complete medium (RPMI1640+10% FBS) were added to terminate the digestion. After termination, single cells suspension were formed by pipetting gently, which were centrifuged at 1000 […] for 5 minutes. The supernatant was discarded, and fresh complete medium were added, and the cells were pipetted evenly. The actual cell density was measured according to the cell counter and the cell suspension was adjusted to 2.5×10^5 cells/mL. 80 μL of cell suspension was drawn by a row pipettor and added into a 96-well black bottom plate (2×10^4 cell/well), and then incubated in a carbon dioxide incubator for 4.5 hours, which was defined as a cell plate.
(§2) • a. The compound mother liquor was prepared according to the following table, with complete medium as the solvent;
(§3) • b. 50 microliters of complete medium was added into columns 3-11 in the 96-v well plate; • c. 75 microliters of test compound (50 mg/mL) and positive control were added to the second column of the 96-v well plate; • d. 25 microliters of compound was drawn from the second column and added into the third column, blown and sucked a few times by a row pipettor, then 25 microliters of liquid was drawn from the third column and added to the fourth column, and subsequently subjected to a 3-fold series dilution until the 10th column. From column 2 to column 11, the compound concentration was 50, 16.67, 5.56, 1.85, 0.62, 0.21, 0.07, 0.02, 0.008, 0 mg/mL; • e. 20 μL compound solutions of various concentrations prepared were transferred by a row pipettor to the corresponding wells of the cell plate, which was defined as a testing plate. Culture of the Testing Plate:
(§4) All the plates were incubated in an incubator at 37° C., 5% CO2 for 43 hours.
(§5) After incubation, 10 microliters of Alma Blue was added to the testing plate. The testing plate was immediately incubated in an incubator at 37° C., 5% CO2 for 3 hours. Then the fluorescence value of each well of the testing plate was read by a microplate reader (wavelength Ex 540 nm/Em 585 nm). Then prism software was used to simulate the curve to calculate CC50 value.

Data set [1] is described as follows: Toxicity test on HK-2 cells (Alma Blue). The note with it: human, 43 hours incubation plus 3 hours Alma Blue, read-out: CC50 of HK-2 cell. Type of data set: cell-based. The procedure: as §1, §2, §3, §4, §5
Data set [2] can be described thus: Evaluation of pharmacokinetics in rats. Type of data set: in vivo. The note with it: rat, plasma, male SD rats, 150 mg/kg single intravenous drop infusion for 30 minutes. As to the method: • 1) Experimental drug: Compound 1; • 2) Experimental animals: 3 male SD rats aged 7-9 weeks; • 3) Drug preparation: An appropriate amount of the drug was weighed and dissolved in saline to forma 60 mg/mL solution. Experimental Operation:
Animals were administered the drug at a dose of 150 mg/kg and a concentration of 60 mg/mL by a single intravenous drop infusion via the tail vein for 30 minutes. Plasma samples were collected from the animals at 0, 0.0333, 0.0833, 0.25, 0.5, 1, 2, 4, 6, 8 and 24 hours after administration. The LC-MS/MS method was used to determine the drug concentration in the plasma sample, and the kinetic parameters of the tested drug are shown in Table 2: […]

Data set [3] deals with E. coli ATCC-25922 (Enterobacteria ATCC-25922). As to the kind of experiment: Drug efficacy in mice (mouse thigh muscle model). Type of data set: in vivo. The note with it: CD-1 mice, 30 mpk subcutaneously 2 h and 10 h after infection, read at 24 h; FIG. 1. The procedure:
12 female CD-1 mice were divided into 4 cages, 3 mice per cage, and were injected intraperitoneally with the immunosuppressant cyclophosphamide (150 mpk).
24 hours later, 4 cages of mice were injected intraperitoneally again with the immunosuppressant cyclophosphamide (100 mpk). The strain E. coli ATCC-25922 (Enterobacteria ATCC-25922) was recovered on a MHA plate. The recovered colonies were picked and dissolved in saline to prepare E. coli ATCC-25922 bacterial solution with a concentration of 1.00E+07 CFU/mL for later use in mouse thigh muscle infection. The amount of bacterial solution injected into the thigh muscle of experimental mice was […], that is, the inoculation amount was 1.00E+06 CFU/mouse. […]
The specific administration of mice was as follows: • (1) 2 h after infection: At the end of 2 h infection, the thigh muscle tissue of the mice in the first cage was taken and placed in 10 mL saline, homogenized, and dotted on a plate with gradient dilution, two duplications for each mouse. The amount of bacteria loaded in the thigh muscle tissue of the mouse was counted. […] The amount of bacteria loaded in the thigh muscle tissue of the mouse was counted, and the experimental results were summarized and shown in FIG. 1.

For `CN[C@@H]1[C@@H](O)[C@@H](O[C@@H]2[C@@H](O)[C@H](O[C@H]3OC(CNCCOCCONC(=N)N)=CC[C@H]3N)[C@@H](N)C[C@H]2NC(=O)[C@@H](O)CCN)OC[C@]1(C)O` [Compound 1], the “toxicity to HK-2 cells compared with Netilmicin and Amikacin” value with HK-2 cells was “significantly lower than that of Netilmicin and Amikacin”. For the same compound, in the data set with HK-2 cells (43 hours incubation plus 3 hours Alma Blue), the Maximum inhibition rate turned out to be 21.96%. The “toxicity to HK-2 cells compared with Plazomicin” value in the data set with HK-2 cells (toxicity regression curve and software prediction (FIG. 8-11)) is “lower than Plazomicin”. Moreover, the CC50 at 43 h in data set [1] is over 10000 µg/mL. The exposure (AUC) in data set [2] (read-out: Area Under the Curve AUC) was found to be 440 µM·h. Besides, the clearance in data set [2] (read-out: Clearance Rate Cl) came out at 9.48 mL/min/kg. In addition, the half-life in data set [2] (read-out: Half-Life T1/2 (converted)) was 217 min. In addition, the Cmax in data set [2] (read-out: Maximum Concentration Cmax) amounted to 316 µM. Further, in data set [2] (read-out: Volume of Distribution Vd), the Vd was 1.5 L/kg. The “in vivo efficacy (bacteria loaded in thigh muscle tissue), compared with Plazomicin” value in data set [3] is listed as “better in vivo efficacy than Plazomicin”.

The values above are taken from US12338263B2, “Antibacterial aminoglycoside derivatives” (priority 2019, dated 2025).
